Test results from patent US6054435A, “6-O-substituted macrolides having antibacterial activity” (priority 1999, dated 2000).
Values after ≈ are worked out from the molar mass of the structure shown.

Experiments:
Assay in all cases: in vitro antibacterial activity (MIC), agar dilution
Type in all cases: cell-based
[1] = test system: Streptococcus Pneumonia 5979; conditions: organism code ZZ; BHI agar, 35-37° C., 20 to 24 hours; unit assumed
Method: (§1) Representative compounds of the present invention were assayed in vitro for antibacterial activity as follows: Twelve petri dishes containing successive aqueous dilutions of the test compound mixed with 10 mL of sterilized Brain Heart Infusion (BHI) agar (Difco 0418-01-5) were prepared. Each plate was inoculated with 1:100 (or 1:10 for slow-growing strains, such as Micrococcus and Streptococcus) dilutions of up to 32 different microorganisms, using a Steers replicator block. […] In addition, a control plate, using BHI agar containing no test compound, was prepared and incubated at the beginning and end of each test.
(§2) An additional plate containing a compound having known susceptibility patterns for the organisms being tested and belonging to the same antibiotic class as the test compound was also prepared and incubated as a further control, as well as to provide test-to-test comparability.
(§3) After incubation, each plate was visually inspected. The minimum inhibitory concentration (MIC) was defined as the lowest concentration of drug yielding no growth, a slight haze, or sparsely isolated colonies on the inoculum spot as compared to the growth control.

[2] = test system: Streptococcus Pneumonia GYR 1171; conditions: organism code YY; BHI agar, 35-37° C., 20 to 24 hours; unit assumed
Method: as §1, §2, §3

[3] = test system: Streptococcus pyogenes 930; conditions: organism code MM; BHI agar, 35-37° C., 20 to 24 hours; unit assumed
Method: as §1, §2, §3

[4] = test system: Staphylococcus aureus A5177; conditions: organism code BB; BHI agar, 35-37° C., 20 to 24 hours; unit assumed
Method: as §1, §2, §3

[5] = test system: Staphylococcus aureus NCTC10649M; conditions: organism code EE; BHI agar, 35-37° C., 20 to 24 hours; unit assumed
Method: as §1, §2, §3

[6] = test system: Staphylococcus aureus A-5278; conditions: organism code CC; BHI agar, 35-37° C., 20 to 24 hours; unit assumed
Method: as §1, §2, §3

[7] = test system: Nocardia Asteroides ATCC9970; conditions: organism code VV; BHI agar, 35-37° C., 20 to 24 hours; unit assumed
Method: as §1, §2, §3

[8] = test system: Micrococcus luteus ATCC 4698; conditions: organism code PP; BHI agar, 35-37° C., 20 to 24 hours; unit assumed
Method: as §1, §2, §3

[9] = test system: Micrococcus luteus ATCC 9341; conditions: organism code OO; BHI agar, 35-37° C., 20 to 24 hours; unit assumed
Method: as §1, §2, §3

[10] = test system: Escherichia coli SS; conditions: organism code RR; BHI agar, 35-37° C., 20 to 24 hours; unit assumed
Method: as §1, §2, §3

[11] = test system: Streptococcus pyogenes PIU 2548; conditions: organism code NN; BHI agar, 35-37° C., 20 to 24 hours; unit assumed
Method: as §1, §2, §3

[12] = test system: Streptococcus bovis A-5169; conditions: organism code JJ; BHI agar, 35-37° C., 20 to 24 hours; unit assumed
Method: as §1, §2, §3

[13] = test system: Staphylococcus aureus ATCC 6538P; conditions: organism code AA; BHI agar, 35-37° C., 20 to 24 hours; unit assumed
Method: as §1, §2, §3

[14] = test system: Staphylococcus epidermidis 3519; conditions: organism code HH; BHI agar, 35-37° C., 20 to 24 hours; unit assumed
Method: as §1, §2, §3

[15] = test system: Staphylococcus aureus CMX 553; conditions: organism code FF; BHI agar, 35-37° C., 20 to 24 hours; unit assumed
Method: as §1, §2, §3

[16] = test system: Candida albicans CCH 442; conditions: organism code TT; BHI agar, 35-37° C., 20 to 24 hours; unit assumed
Method: as §1, §2, §3

[17] = test system: Streptococcus Pneumonia 5649; conditions: organism code ZZA; BHI agar, 35-37° C., 20 to 24 hours; unit assumed
Method: as §1, §2, §3

[18] = test system: Staphylococcus aureus 1775; conditions: organism code GG; BHI agar, 35-37° C., 20 to 24 hours; unit assumed
Method: as §1, §2, §3

[19] = test system: Enterococcus faecium ATCC 8043; conditions: organism code II; BHI agar, 35-37° C., 20 to 24 hours; unit assumed
Method: as §1, §2, §3

[20] = test system: Mycobacterium smegmatis ATCC 114; conditions: organism code UU; BHI agar, 35-37° C., 20 to 24 hours; unit assumed
Method: as §1, §2, §3

[21] = test system: Escherichia coli JUHL; conditions: organism code QQ; BHI agar, 35-37° C., 20 to 24 hours; unit assumed
Method: as §1, §2, §3

[22] = test system: Escherichia coli DC-2; conditions: organism code SS; BHI agar, 35-37° C., 20 to 24 hours; unit assumed
Method: as §1, §2, §3

[23] = test system: Streptococcus Pneumonia ATCC6303; conditions: organism code XX; BHI agar, 35-37° C., 20 to 24 hours; unit assumed
Method: as §1, §2, §3

[24] = test system: Streptococcus pyogenes EES61; conditions: organism code LL; BHI agar, 35-37° C., 20 to 24 hours; unit assumed
Method: as §1, §2, §3

[25] = test system: Staphylococcus aureus CMX 642A; conditions: organism code DD; BHI agar, 35-37° C., 20 to 24 hours; unit assumed
Method: as §1, §2, §3

[26] = test system: Streptococcus agalactiae CMX 508; conditions: organism code KK; BHI agar, 35-37° C., 20 to 24 hours; unit assumed
Method: as §1, §2, §3

[27] = test system: Haemophilis Influenzae DILL AMP R; conditions: organism code WW; BHI agar, 35-37° C., 20 to 24 hours; unit assumed
Method: as §1, §2, §3

Row | SMILES | MIC [1] [µg/mL] | MIC [2] [µg/mL] | MIC [4] [µg/mL] | MIC [5] [µg/mL] | MIC [6] [µg/mL] | MIC [7] [µg/mL] | MIC [8] [µg/mL] | MIC [9] [µg/mL] | MIC [10] [µg/mL] | MIC [11] [µg/mL] | MIC [12] [µg/mL] | MIC [13] [µg/mL] | MIC [14] [µg/mL] | MIC [15] [µg/mL] | MIC [16] [µg/mL] | MIC [17] [µg/mL] | MIC [18] [µg/mL] | MIC [19] [µg/mL] | MIC [20] [µg/mL] | MIC [21] [µg/mL] | other results
1 | CC[C@H]1OC(=O)[C@H](C)C(=O)[C@H](C)[C@@H](O[C@@H]2O[C@H](C)C[C@H](N(C)C)[C@H]2O)[C@](C)(OC/C=C/c2cncc(-c3cncc4ccccc34)c2)C[C@@H](C)C(=O)[C@H](C)[C@H]2NC(=O)O[C@@]21C [Example 48] | 16 (≈ 19 µM) | ≤ 0.004 | 0.2 (≈ 0.237 µM) | 0.2 (≈ 0.237 µM) | > 100 | 0.05 (≈ 0.0593 µM) | 0.1 (≈ 0.119 µM) | 0.05 (≈ 0.0593 µM) | 0.78 (≈ 0.925 µM) | 0.2 (≈ 0.237 µM) | 0.02 (≈ 0.0237 µM) | 0.2 (≈ 0.237 µM) | 0.2 (≈ 0.237 µM) | 0.2 (≈ 0.237 µM) | > 100 | 0.25 (≈ 0.297 µM) | > 100 | 0.05 (≈ 0.0593 µM) | 0.78 (≈ 0.925 µM) | > 100 | MIC [3]: 100 µg/mL (≈ 119 µM); MIC [22]: > 100 µg/mL; MIC [23]: ≤ 0.004 µg/mL; MIC [24]: 0.05 µg/mL (≈ 0.0593 µM); MIC [25]: 0.2 µg/mL (≈ 0.237 µM); MIC [26]: 0.02 µg/mL (≈ 0.0237 µM)
2 | CC[C@H]1OC(=O)[C@H](C)C(=O)[C@H](C)[C@@H](O[C@@H]2O[C@H](C)C[C@H](N(C)C)[C@H]2O)[C@](C)(OC/C=C/c2cncc(-c3ccsc3)c2)C[C@@H](C)C(=O)[C@H](C)[C@H]2NC(=O)O[C@@]21C [Example 49] | 32 (≈ 40.1 µM) | ≤ 0.004 | 0.05 (≈ 0.0627 µM) | 0.1 (≈ 0.125 µM) | > 100 | 0.05 (≈ 0.0627 µM) | 0.05 (≈ 0.0627 µM) | 0.02 (≈ 0.0251 µM) | 0.39 (≈ 0.489 µM) | 0.2 (≈ 0.251 µM) | 0.02 (≈ 0.0251 µM) | 0.1 (≈ 0.125 µM) | 0.1 (≈ 0.125 µM) | 0.05 (≈ 0.0627 µM) | > 100 | 0.03 (≈ 0.0376 µM) | > 100 | 0.05 (≈ 0.0627 µM) | 0.39 (≈ 0.489 µM) | 50 (≈ 62.7 µM) | MIC [3]: 25 µg/mL (≈ 31.3 µM); MIC [22]: 50 µg/mL (≈ 62.7 µM); MIC [23]: ≤ 0.004 µg/mL; MIC [24]: 0.02 µg/mL (≈ 0.0251 µM); MIC [25]: 0.1 µg/mL (≈ 0.125 µM); MIC [26]: 0.02 µg/mL (≈ 0.0251 µM)
3 | CC[C@H]1OC(=O)[C@H](C)C(=O)[C@H](C)[C@@H](O[C@@H]2O[C@H](C)C[C@H](N(C)C)[C@H]2O)[C@](C)(OC/C=C/c2cnc(-c3ncc(Br)s3)s2)C[C@@H](C)C(=O)[C@H](C)[C@H]2NC(=O)O[C@@]21C [Example 56] | 4 (≈ 4.53 µM) | 0.015 (≈ 0.017 µM) | 0.2 (≈ 0.226 µM) | 0.39 (≈ 0.441 µM) | 100 (≈ 113 µM) | 0.39 (≈ 0.441 µM) | 0.39 (≈ 0.441 µM) | 0.05 (≈ 0.0566 µM) | 0.78 (≈ 0.882 µM) | 0.39 (≈ 0.441 µM) | 0.05 (≈ 0.0566 µM) | 0.2 (≈ 0.226 µM) | 0.2 (≈ 0.226 µM) | 0.2 (≈ 0.226 µM) | > 100 | 0.25 (≈ 0.283 µM) | 50 (≈ 56.6 µM) | 0.05 (≈ 0.0566 µM) | 0.39 (≈ 0.441 µM) | > 10 | MIC [27]: 8 µg/mL (≈ 9.05 µM); MIC [22]: > 100 µg/mL; MIC [23]: 0.015 µg/mL (≈ 0.017 µM); MIC [24]: 0.05 µg/mL (≈ 0.0566 µM); MIC [25]: 0.2 µg/mL (≈ 0.226 µM); MIC [26]: 0.05 µg/mL (≈ 0.0566 µM)
